In publication PMC7024175, “In Depth Analysis of Kinase Cross Screening Data to Identify CAMKK2 Inhibitory Scaffolds” (Molecules, 2020):

Experiments:
[1] = system: BRD4; details: cited from earlier work
[2] = cited from earlier work
[3] = molecular target: casein kinase 2 (CK2); set-up: method as in earlier work; details: ref 80 (Bain et al.); cited from earlier work
[4] = system: mice; details: mouse, in vivo; cited from earlier work
[5] = HLM, mass spectrometry analysis; cited from earlier work
[6] = system: aryl hydrocarbon receptor; set-up: method as in PMID 18755850; details: cited from earlier work
[7] = molecular target: T1, CAMKK2 (Homo sapiens, UniProt Q96RR4); assay: CAMKK2 enzyme assay (radiometric, CaMKKtide); type: biochemical; details: read-out: PoC (activity remaining); for remaining activity at 0.1 µM: 0.1 µM inhibitor; for remaining activity at 1 µM: 1.0 µM inhibitor
T1 construct: made in house
Procedure: CAMKK2 activity was determined by measuring the transfer of radiolabeled phosphate from [γ-^32P]-ATP to a synthetic peptide substrate (CaMKKtide) as previously described [49]. Briefly, purified recombinant CAMKK2 (100 pM) was incubated in assay buffer (50 mM HEPES [pH 7.4], 1 mM DTT, 0.02% [v/v] Brij-35) containing 200 μM CaMKKtide (Genscript), 100 μM CaCl2, 1 μM CaM (Sigma-Aldrich, Castle Hill, NSW, Australia) 200 μM [γ-^32P]-ATP (Perkin Elmer, Boston, MA, USA), 5 mM MgCl2 (Sigma-Aldrich, Castle Hill, NSW, Australia) and various concentrations of inhibitors (0–1 μM) in a standard 30 μl assay for 10 min at 30 °C. Reactions were terminated by spotting 15 μl onto P81 phosphocellulose paper (GE Lifesciences, Paramatta, NSW, Australia) and washing extensively in 1% phosphoric acid (Sigma-Aldrich, Castle Hill, NSW, Australia). Radioactivity was quantified by liquid scintillation counting.

[8] = system: CAMKK2; details: activity reported in the literature; cited from earlier work

T1 sequence (Q96RR4 whole entry): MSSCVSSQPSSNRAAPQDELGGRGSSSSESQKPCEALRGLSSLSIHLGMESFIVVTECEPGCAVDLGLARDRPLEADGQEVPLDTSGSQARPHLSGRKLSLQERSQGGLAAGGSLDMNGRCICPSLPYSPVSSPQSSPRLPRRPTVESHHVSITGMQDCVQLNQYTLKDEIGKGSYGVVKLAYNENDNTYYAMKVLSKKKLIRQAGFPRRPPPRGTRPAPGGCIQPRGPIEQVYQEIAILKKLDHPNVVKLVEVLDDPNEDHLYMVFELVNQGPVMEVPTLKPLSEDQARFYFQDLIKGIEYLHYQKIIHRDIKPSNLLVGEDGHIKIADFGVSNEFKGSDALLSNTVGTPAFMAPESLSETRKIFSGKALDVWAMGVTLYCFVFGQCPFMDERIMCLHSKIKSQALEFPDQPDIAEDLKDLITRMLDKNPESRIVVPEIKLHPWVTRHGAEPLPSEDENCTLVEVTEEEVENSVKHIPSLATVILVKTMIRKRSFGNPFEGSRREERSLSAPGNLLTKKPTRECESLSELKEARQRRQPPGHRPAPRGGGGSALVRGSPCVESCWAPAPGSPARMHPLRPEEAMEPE

SMILES	BRD4 inhibition [1]	aqueous solubility [2]	IC50 [3] [nM]	tolerability, hepatic and renal toxicity [4]	metabolism on exposure to human liver microsomes [5]	aryl hydrocarbon receptor binding/activation [6]	remaining activity at 0.01 µM ([7]; 0.01 µM inhibitor) [%]	remaining activity at 0.1 µM [7] [%]	remaining activity at 1 µM [7] [%]	pIC50 CAMKK2 reported in the literature [8]
CC[C@@H]1C(=O)N(C)c2cnc(Nc3ccc(C(=O)NC4CCN(C)CC4)cc3OC)nc2N1C1CCCC1 [BI2536]	potent inhibitor of BRD4	–	–	–	–	–	–	–	–	–
O=C(O)c1ccc2c3c1cccc3c(=O)n1c3ccccc3nc21 [STO 609, 7-oxo-7H-benzimidazo[2,1-a]benz[de]isoquinoline-3-carboxylic acid]	–	poor aqueous solubility	190	well tolerated in mice without significant hepatic or renal toxicity	metabolized to three mono-hydroxylated byproducts, principally by CYP1A2	binds and activates the aryl hydrocarbon receptor	63	56	21	–
O=C(O)c1ccc(-c2c[nH]c3ncc(-c4ccccc4)cc23)cc1C1CCCC1 [GSK650394]	–	–	–	–	–	–	–	4	3	9.2
